Reference: ChEMBL document CHEMBL1201862, “PubChem BioAssay data set” (2004)
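48-hour exposure; five concentrations; linearly interpolated endpoints. Abbreviation: GI50, concentration required for 50% inhibition of growth.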 The source made the active and inactive calls. No stated cut-off is given here; in the data, active = GI50 up to about 1.1 µM and inactive = higher.

Columns and labels:
Assay in all cases: growth of human tumour cells (NCI), 48 h
MDA-MB-435 = tested on: MDA-MB-435
HT-29 = tested on: HT-29
UACC-257 = tested on: UACC-257
BT-549 = tested on: BT-549
OVCAR-5 = tested on: OVCAR-5
786-0 = tested on: 786-0
UACC-62 = tested on: UACC-62
NCI-H226 = tested on: NCI-H226
OVCAR-8 = tested on: OVCAR-8
IGROV-1 = tested on: IGROV-1
CCRF-CEM = tested on: CCRF-CEM
T47D = tested on: T47D
NCI/ADR-RES = tested on: NCI/ADR-RES
MDA-MB-231 = tested on: MDA-MB-231
SF-295 = tested on: SF-295
COLO 205 = tested on: COLO 205
CAKI-1 = tested on: CAKI-1
OVCAR-4 = tested on: OVCAR-4
DU-145 = tested on: DU-145
SK-MEL-5 = tested on: SK-MEL-5

Measured: GI50

Cc1cn(CCCCCCOC(=O)NC(CCCNC(=N)N)C(=O)O)c(=O)[nH]c1=O (stereo unspecified)
inactive: MDA-MB-435 > 100 µM | HT-29 > 100 µM | UACC-257 > 100 µM | BT-549 > 100 µM | OVCAR-5 > 100 µM | 786-0 > 100 µM | UACC-62 > 100 µM | NCI-H226 > 100 µM | OVCAR-8 > 100 µM | IGROV-1 > 100 µM | CCRF-CEM > 100 µM | T47D > 100 µM | NCI/ADR-RES > 100 µM | MDA-MB-231 > 100 µM | SF-295 > 100 µM | COLO 205 > 100 µM | CAKI-1 > 100 µM | OVCAR-4 > 100 µM | DU-145 > 100 µM

COc1ccc(NC(S)=Nc2cccc(C)n2)cc1
inactive: MDA-MB-435 > 100 µM | HT-29 > 100 µM | UACC-257 > 100 µM | BT-549 > 100 µM | 786-0 54 µM | UACC-62 > 100 µM | NCI-H226 > 100 µM | SK-MEL-5 > 100 µM | OVCAR-8 96.8 µM | IGROV-1 70.6 µM | CCRF-CEM > 100 µM | T47D > 100 µM | NCI/ADR-RES > 100 µM | MDA-MB-231 > 100 µM | SF-295 33.3 µM | COLO 205 > 100 µM | CAKI-1 37.9 µM | OVCAR-4 > 100 µM | DU-145 > 100 µM

Cc1ccc(NC(=O)c2cc(S(=O)(=O)N3CCNNC3=O)c(S)cc2Cl)cc1
inactive: MDA-MB-435 > 100 µM | UACC-257 > 100 µM | BT-549 28.9 µM | OVCAR-5 > 100 µM | 786-0 > 100 µM | UACC-62 > 100 µM | NCI-H226 > 100 µM | SK-MEL-5 > 100 µM | OVCAR-8 > 100 µM | IGROV-1 > 100 µM | CCRF-CEM > 100 µM | T47D 41.8 µM | NCI/ADR-RES > 100 µM | MDA-MB-231 > 100 µM | SF-295 > 100 µM | COLO 205 > 100 µM | CAKI-1 > 100 µM | OVCAR-4 > 100 µM | DU-145 > 100 µM

O=c1c2cc(Cl)cc(Cl)c2oc2nc3n(c(=O)c12)CCCS3
inactive: MDA-MB-435 > 100 µM | UACC-257 > 100 µM | BT-549 47.6 µM | OVCAR-5 > 100 µM | 786-0 > 100 µM | UACC-62 > 100 µM | NCI-H226 > 100 µM | SK-MEL-5 > 100 µM | IGROV-1 > 100 µM | CCRF-CEM 92.5 µM | T47D 57.1 µM | NCI/ADR-RES > 100 µM | MDA-MB-231 > 100 µM | SF-295 > 100 µM | COLO 205 > 100 µM | CAKI-1 > 100 µM | OVCAR-4 > 100 µM | DU-145 > 100 µM

C#CCOC(=O)C(N)CSSCC(N)C(=O)O (stereo unspecified)
inactive: MDA-MB-435 > 100 µM | UACC-257 > 100 µM | BT-549 > 100 µM | OVCAR-5 > 100 µM | 786-0 > 100 µM | UACC-62 > 100 µM | NCI-H226 > 100 µM | SK-MEL-5 > 100 µM | OVCAR-8 > 100 µM | IGROV-1 > 100 µM | CCRF-CEM > 100 µM | T47D > 100 µM | NCI/ADR-RES > 100 µM | MDA-MB-231 > 100 µM | COLO 205 > 100 µM | CAKI-1 > 100 µM | OVCAR-4 > 100 µM | DU-145 > 100 µM

Cc1cc2c(cc1Cl)S(=O)(=O)OC(c1ccc([N+](=O)[O-])cc1)=N2
inactive: MDA-MB-435 > 100 µM | HT-29 > 100 µM | UACC-257 > 100 µM | BT-549 > 100 µM | 786-0 > 100 µM | UACC-62 > 100 µM | NCI-H226 > 100 µM | SK-MEL-5 > 100 µM | OVCAR-8 > 100 µM | IGROV-1 > 100 µM | CCRF-CEM > 100 µM | T47D > 100 µM | NCI/ADR-RES > 100 µM | MDA-MB-231 > 100 µM | SF-295 > 100 µM | COLO 205 > 100 µM | CAKI-1 > 100 µM | OVCAR-4 > 100 µM | DU-145 > 100 µM

O=S(=O)(O)c1ccc2c(/N=N/c3ccccc3)c(O)c(S(=O)(=O)O)cc2c1
inactive: MDA-MB-435 > 100 µM | UACC-257 > 100 µM | BT-549 > 100 µM | OVCAR-5 > 100 µM | 786-0 > 100 µM | UACC-62 > 100 µM | NCI-H226 > 100 µM | SK-MEL-5 > 100 µM | OVCAR-8 > 100 µM | IGROV-1 > 100 µM | CCRF-CEM > 100 µM | T47D > 100 µM | NCI/ADR-RES > 100 µM | MDA-MB-231 > 100 µM | SF-295 > 100 µM | COLO 205 > 100 µM | CAKI-1 > 100 µM | OVCAR-4 > 100 µM | DU-145 > 100 µM
